Laboratory results published in patent US20250236619A1, “FUSED BICYCLIC COMPOUND CONTAINING PYRROLINONE” (CHIA TAI TIANQING PHARMACEUTICAL GROUP CO., LTD., priority 2022, published 2025).

Experiments:
[1] = tested on: p-SLP76 phosphorylation of Jurkat cells; assay: Assay for inhibitory activity against p-SLP76 phosphorylation of Jurkat cells; format: cell-based; conditions: stimulator CD3CD28, 30 min, read-out: IC50 (nM) for inhibition of p-SLP76 phosphorylation of Jurkat cells
Method: 2.1 Assay for Inhibitory Activity Against p-SLP76 Phosphorylation of Jurkat Cells
Jurkat cells in a good growth state were added to a centrifuge tube, centrifuged, and resuspended. The cell density was adjusted to 6.25×10^6 cells/mL, and the cells were seeded in a 384-well small-volume white plate at […]. Different compounds dissolved in DMSO were added to the wells using a nanoliter pipettor to obtain final concentrations of the compounds of 2500 nM to 10.29 nM, and a control was set; the wells were set in duplicate. After 1 h of cell culture, the stimulator CD3CD28 (manufacturer: stemcell, 4 μL) was added and the cells were incubated at 37° C. for 30 min. 3 μL of lysis buffer (manufacturer: BioAuxilium) was added to each well, and the plate was shaken at room temperature for 30 min. After the lysate was well mixed, 5 μL of pre-mixed antibody (manufacturer: BioAuxilium) in assay buffer was added and the plate was incubated overnight at room temperature. The signal values were measured on a PerkinElmer Envision multimode microplate reader (excitation: 320 nm, emission: 615 nm/665 nm), and IC50 was calculated by four-parameter filling.

[2] = target: HPK1 kinase (Homo sapiens (Human), UniProt Q92918); assay: Assay for in vitro inhibitory activity against HPK1 kinase; format: biochemical; conditions: HPK1 1 ng/μL, ATP 1 mM, STK Substrate 1-biotin 500 nM
Sequence of HPK1 kinase (Q92918 whole entry): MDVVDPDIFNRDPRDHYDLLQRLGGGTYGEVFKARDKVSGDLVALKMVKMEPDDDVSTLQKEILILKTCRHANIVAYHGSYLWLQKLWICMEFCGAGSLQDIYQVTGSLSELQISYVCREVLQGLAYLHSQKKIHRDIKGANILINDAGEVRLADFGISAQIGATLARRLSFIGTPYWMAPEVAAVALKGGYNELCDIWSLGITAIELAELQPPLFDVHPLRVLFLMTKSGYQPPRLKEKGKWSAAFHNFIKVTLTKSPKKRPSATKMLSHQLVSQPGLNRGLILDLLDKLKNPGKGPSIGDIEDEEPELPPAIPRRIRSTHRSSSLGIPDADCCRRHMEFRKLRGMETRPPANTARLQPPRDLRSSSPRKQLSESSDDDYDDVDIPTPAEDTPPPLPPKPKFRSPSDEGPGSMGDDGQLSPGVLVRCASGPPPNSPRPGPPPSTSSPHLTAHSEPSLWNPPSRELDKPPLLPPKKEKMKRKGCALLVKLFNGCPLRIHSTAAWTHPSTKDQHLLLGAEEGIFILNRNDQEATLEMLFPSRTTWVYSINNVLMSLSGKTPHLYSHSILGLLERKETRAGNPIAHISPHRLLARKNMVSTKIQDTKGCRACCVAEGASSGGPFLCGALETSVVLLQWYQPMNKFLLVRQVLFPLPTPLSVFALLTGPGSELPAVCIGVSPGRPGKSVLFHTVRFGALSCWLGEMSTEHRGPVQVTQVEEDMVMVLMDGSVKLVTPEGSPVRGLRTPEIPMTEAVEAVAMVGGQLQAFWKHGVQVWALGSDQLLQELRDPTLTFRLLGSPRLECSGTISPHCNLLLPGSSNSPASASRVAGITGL
Method: Experimental Example 1: Assay for In Vitro Inhibitory Activity Against HPK1 Kinase A kinase buffer (Enzymatic buffer 5×) was diluted to 1×, and 10 mM MgCl2, 1 mM DTT, and 0.005% Tween 20 were added. A 100 ng/μL HPK1 (Life technology) stock solution was diluted with the kinase buffer to obtain a 1.67×, 1.67 ng/μL working solution (final concentration: 1 ng/μL), and the working solution was seeded in a 384-well plate at 6 μL/well. Different compounds dissolved in DMSO were added to the wells using a nanoliter pipettor to obtain final concentrations of the compounds of 1000 nM to 0.244 nM (4-fold serial dilution, 7 concentrations in total), and blank control wells (without enzyme) and negative control wells (with enzyme, plus vehicle DMSO) were set; the wells were set in duplicate. After the enzyme and the compounds were incubated at room temperature for 1 h, a 5×, 5 mM ATP dilution (final concentration: 1 mM) in the kinase buffer was mixed with a 5×, […] substrate (Cisbio, STK Substrate 1-biotin; final concentration: 500 nM) in equal volume, and the mixture was added to the plate at 4 µL/well. The plate was sealed with a film and then incubated at room temperature for 2 h. An assay antibody solution was prepared by mixing the antibody STK Antibody-cryptate (Cisbio, 5 μL/test) and a 4×, 500 nM Streptavidin-XL665 (Cisbio; final concentration: 125 nM) in equal volume and added to the plate at 10 μL/well. The plate was incubated at room temperature for 1 h. The signal values (excitation: […]) were measured using a PE Envision multimode microplate reader, and IC50 was calculated by four-parameter fitting.

Compound	IC50 [1] [nM]	IC50 [2] [nM]
CN(C)Cc1nc(Nc2ccc(-c3cnc4ccc5occc5n34)c3c2C(=O)NC3)ccc1-c1ccn(C)c(=O)c1 [Compound I-77]	< 50	2.9
CN(C)Cc1nc(Nc2ccc(-c3cnn4c3CC3(CC3)C4)c3c2C(=O)NC3)ccc1C1CCN(C)CC1 [Compound I-78]	50 to 100	2.3
CN(C)Cc1nc(Nc2ccc(-c3cnn4c3CC3(CC4)CC3)c3c2C(=O)NC3)ccc1[C@@H]1CCN(C)C(=O)C1 [I-71]	< 50	3.6
